Several values for one entry are separate records, joined by “and”; a condition that tells them apart may be missing. Equal values may be shown once. Entries after “also recorded” stand apart in the source; their conditions may differ. Blank lines part the entries; values can stand above or below the compound they belong to.
Key:
HDM2_25–117 = target: T1, HDM2_25–117 (Homo sapiens, UniProt Q00987); experiment: direct binding fluorescence polarization assay; details: fluorescein labeled ligand at 10 nM, varying HDM2; read-out: Kd (HDM2/MDM2)
T1 construct: unnamed fusion partner ('fusion protein'); made in house; host or cells: E. coli BL21
Procedure: To measure the binding affinity of the functionalized spiroligomers to HDM2 we utilized a direct binding fluorescence polarization assay. The binding of the fluorescein labeled spiroligomers was measured at 10 nM spiroligomer in the presence of varying concentrations of HDM2_25–117 [31]. […] The initial screen of spiroligomers including 3–7 was carried out on the spiroligomer backbone containing all (S) stereochemistry to identify appropriate functional groups to mimic the side chains of Phe19, Trp23 and Leu26 of the p53 helix.
HDM2 Protein Expression. A fusion protein consisting of residues 1-140 (the plasmid was a generous gift from the lab of Neil Zondlo, University of Delaware) was prepared by over-expression.4 Plasmids were used to transform chemically competent E-coli BL21 Cells (Novagen), and a single colony was used to inoculate 2×4 mL LB media culture tubes containing 0.1 mg/mL ampicillin, at 37 °C overnight. These overnight cultures were used to inoculate a 1 L culture of TB media containing 0.1 mg/ml ampicillin. The culture was incubated at 37 °C with shaking at 250 rpm until the optical density at 600 nm reached to 0.9 absorbance units. Protein overexpression was then induced by the addition of 20% isopropyl β-D-thiogalactoside (IPTG) to 0.4 mM final concentration. The culture was then grown for additional 5 hours at 30 °C. Then cells were harvested at 4 °C by centrifugation at 4500 rpm for 20 min.
The cell pellet was resuspended in chilled 1x Binding Buffer (0.5 M NaCl, 20 mMTris-Hcl, 5 mM imidazole, pH 7.9), frozen and stored at -80 °C until protein purification.
Protein Purification. The frozen cell pellet was thawed at 4 °C and lysed by sonication for 2 minutes with 10 sec on and 20 sec off. Cell debris was pelleted by centrifugation for 30 min at 15000 g, 4 °C and the supernatant was filtered through a 0.2 μm syringe filter. A column was prepared using 2 mL Novagen His-Bind suspended resin and resin was washed with 3 volumes DI water. The flow rate maintained was not more than 0.5 ml/min throughout the purification.
The resin was charged with 5 vol 1x Charge Buffer (50 mM NiSO4) and then equilibrated with 3 vol 1x Binding Buffer (5 mM imidazole). After loading the column with prepared extract, the resin was washed with 10 vol 1x Binding Buffer and then with 6 vol 1x Wash Buffer (10 mM imidazole). Protein was then eluted with 6 vol 1x Elution Buffer (1 M imidazole). The eluate was captured in fractions of 0.5 ml. Fractions were assayed with Coomasie blue and desired fractions were combined and dialyzed using spectra/por 6 Dialysis Membranes of 10,000 MWCO (Spectrum Laboratories) in PBS (pH 7.4, 5 mM EDTA and 0.5 mM DTT) for overnight.
The resulting protein was characterized by SDS-PAGE (4-20% gradient gel) for purity analysis and concentrations were measured by UV analysis.
Fresh protein was used immediately for protein binding experiments. […]
Direct Binding Fluorescence Polarization Experiments. Fluorescence polarization experiments were undertaken to assess the ability of spiroligomers to bind HDM2, a protein with hydrophobic cleft that binds the p53 N-terminal helical domain. Fluoresceinated oligomers (conc. of 10 nM) were incubated for 30 minutes at room temperature with sequential dilutions of […]

HDM2 [1] = target: T2, HDM2 (Homo sapiens, UniProt Q00987); experiment: competition fluorescence polarization experiment (displacement of Flp4 peptide); format: binding; details: Flp4 at 10 nM with 2 µM HDM2, series of concentrations of spiroligomer; read-out: Ki against Flp4 peptide
T2 construct: A fusion protein consisting of residues 1-140; unnamed fusion partner ('fusion protein'); made in house; host or cells: E. coli BL21

HDM2 [2] = target: T2, HDM2; experiment: as above; format: binding; details: hDM2 0.4 μM, Flp4 10 nM, three independent trials
Procedure: Competition Fluorescence Polarization Experiments. To assess the ability of oligomer 2 to […]
competition experiments were undertaken. hDM2 (0.4 μM) and Flp4 control peptide (10 nM) were incubated at room temperature for 30 minutes in binding buffer, followed by the addition of serial dilutions of oligomer 2 (final conc. 400 μM to 0.194 μM). The binding experiments were incubated for a further 30 minute time period, followed by recording of the polarization data. See […]
Bis- Pept ide ( nM ) Po lar A ( mP)
Table S.6. Table of raw values used for the plot of the competition binding experiment; X values are oligomer 2 concentration (in nM) and Y values are polarization (in millipolarization units); data from three independent trials is shown.

[3] = test system: HDM2, p53Y220C and p21 in Huh7 cells; experiment: Western blot analysis of HDM2, p53 and p21; format: cell-based, human
Procedure: Huh7 cells were incubated with spiroligomer 1 and Nutlin-3 in media at 2, 5, 10 and 20 µM for 17 hours at 37°C. […] Huh7 cells were then incubated with 1 at 15 µM and cells were harvested at 2, 4, 6, 8, 12 and 24 hours. […]
Cell Culture and Treatment. HepG2 (expressing wild-type p53) and Huh7 (expressing mutant p53) cell lines were purchased from the American Type Culture Collection (ATCC) and cultured as monolayers in Dulbecco’s modified Eagle’s medium (DMEM) (Invitrogen) supplemented with 100 mM nonessential amino acid solution, 100 mM sodium pyruvate, 100 U/mL penicillin, 100 μg/mL streptomycin, and 10% heat inactivated fetal bovine serum (FBS) (all from Hyclone).
Cells were maintained at 37° C and 5% CO2 and were treated with media that contained 0.5%
FBS. Nutlin-3 (Sigma) was dissolved in 0.01% DMSO (Sigma).
Both nutlin-3 and spiroligomers were added into the medium for final concentrations of 2 µM, 5 µM, 10 µM and 20 µM for 24 hours. For the western blot experiments detailed below, the time length for incubation with bis-peptide was 17 hours. […]
Western Blotting. For protein extraction, cells were lysed in cell lysis buffer (Cell Signaling) with a protease inhibitor cocktail for 20 minutes on ice. Protein extracts (50 μg) were separated by SDS-PAGE electrophoresis, transferred to nitrocellulose membranes (Schleicher & Schuell), and incubated overnight with primary antibodies to p53, HDM2, p21, and β-actin (all from Santa Cruz Biotechnology). The blots were developed using ECL plus detection system (Amersham Biosciences) and exposed to Kodak imaging films (Kodak BioMax). Images were quantified using ImageJ software (NIH).
Figure S.5. Detection of bis-peptide 1 and Nutlin-3 in HepG2 (left) and Huh7 (right) cells. The concentration of each compound is given in μM and the three proteins (HDM2, p53 and p21) bands are […]

T2 sequence (Q00987 1-140): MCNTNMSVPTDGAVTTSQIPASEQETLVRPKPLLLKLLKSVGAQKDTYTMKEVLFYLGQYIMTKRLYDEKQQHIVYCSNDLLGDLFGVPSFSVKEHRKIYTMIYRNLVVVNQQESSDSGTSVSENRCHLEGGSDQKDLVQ
T1 sequence (Q00987 25-117): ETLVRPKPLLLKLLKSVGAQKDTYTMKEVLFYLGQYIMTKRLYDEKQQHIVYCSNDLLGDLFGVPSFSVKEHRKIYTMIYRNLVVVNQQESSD

Kd (HDM2_25–117): 4.8 µM
Compound: CC(C)CN1C(=O)[C@@H]2C[C@@]3(CN2C(=O)[C@@]12C[C@H]1C(=O)N(Cc4ccc(Cl)c(Cl)c4)[C@@]4(C[C@@H]5C(=O)N[C@H](CCc6ccccc6)C(=O)N5C4)C(=O)N1C2)NC(=O)[C@@H](CCCCNC(=S)Nc1ccc2c(c1)C(=O)OC21c2ccc(O)cc2Oc2cc(O)ccc21)NC3=O [Compound 10]

Ki (HDM2 [1]): 5 µM | polarization of Flp4 in competition (HDM2 [2]; oligomer 194.8242 nM): 115. 56 mP and 119. 19 mP and 107. 52 mP | polarization of Flp4 in competition (HDM2 [2]; oligomer 389.6484 nM): 109. 71 mP and 120. 5 mP and 117. 89 mP | polarization of Flp4 in competition (HDM2 [2]; oligomer 779.2969 nM): 107. 07 mP and 119. 05 mP and 110. 95 mP | polarization of Flp4 in competition (HDM2 [2]; oligomer 1558.594 nM): 102. 29 mP and 112. 93 mP and 113. 76 mP | polarization of Flp4 in competition (HDM2 [2]; oligomer 3117.188 nM): 103. 88 mP and 103. 29 mP and 109. 28 mP | polarization of Flp4 in competition (HDM2 [2]; oligomer 6234.375 nM): 97.23 mP and 94.66 mP and 93.84 mP | polarization of Flp4 in competition (HDM2 [2]; oligomer 12468.75 nM): 91.7 mP and 86.62 mP and 91.97 mP | polarization of Flp4 in competition (HDM2 [2]; oligomer 24937.5 nM): 88.82 mP and 82 mP and 88.53 mP | polarization of Flp4 in competition (HDM2 [2]; oligomer 49875 nM): 86.21 mP and 84.81 mP and 86.83 mP | polarization of Flp4 in competition (HDM2 [2]; oligomer 99750 nM): 78.06 mP and 93.73 mP and 94.13 mP | polarization of Flp4 in competition (HDM2 [2]; oligomer 199500 nM): 84.38 mP and 85.9 mP and 80.84 mP | polarization of Flp4 in competition (HDM2 [2]; oligomer 399000 nM): 75.41 mP and 67.78 mP and 78.26 mP
Compound: CC(C)CN1C(=O)C2CC3(CN2C(=O)C12CC1C(=O)N(Cc4ccc(Cl)c(Cl)c4)C4(CC5C(=O)NC(CCc6ccccc6)C(=O)N5C4)C(=O)N1C2)NC(=O)C(CCC(=O)O)NC3=O (stereo not drawn) [Compound 2]

Kd (HDM2_25–117): 4.6 µM
Compound: CC(C)CN1C(=O)[C@@H]2C[C@@]3(CN2C(=O)[C@@]12C[C@H]1C(=O)N(Cc4ccc(Cl)c(Cl)c4)[C@@]4(C[C@H]5C(=O)N[C@H](CCc6ccccc6)C(=O)N5C4)C(=O)N1C2)NC(=O)[C@@H](CCCCNC(=S)Nc1ccc2c(c1)C(=O)OC21c2ccc(O)cc2Oc2cc(O)ccc21)NC3=O [Compound 11]

Kd (HDM2_25–117): 23 µM
Compound: CC(C)CN1C(=O)[C@@H]2C[C@@]3(CN2C(=O)[C@@]12C[C@H]1C(=O)N(Cc4ccc(Cl)c(Cl)c4)[C@@]4(C[C@H]5C(=O)N[C@H](CCc6ccccc6)C(=O)N5C4)C(=O)N1C2)NC(=O)[C@H](CCCCNC(=S)Nc1ccc2c(c1)C(=O)OC21c2ccc(O)cc2Oc2cc(O)ccc21)NC3=O [Compound 8]

Kd (HDM2_25–117): 16 µM
Compound: CC(C)CN1C(=O)[C@@H]2C[C@@]3(CN2C(=O)[C@@]12C[C@H]1C(=O)N(Cc4cccc5ccccc45)[C@]4(C[C@H]5C(=O)N[C@@H](Cc6ccccc6)C(=O)N5C4)C(=O)N1C2)NC(=O)[C@H](CCCCNC(=S)Nc1ccc2c(c1)C(=O)OC21c2ccc(O)cc2Oc2cc(O)ccc21)NC3=O [Compound S10]

Kd (HDM2_25–117): 1.6 µM
Compound: CC(C)CN1C(=O)[C@@H]2C[C@@]3(CN2C(=O)[C@@]12C[C@H]1C(=O)N(Cc4ccc(Cl)c(Cl)c4)[C@]4(C[C@H]5C(=O)N[C@@H](CCc6ccccc6)C(=O)N5C4)C(=O)N1C2)NC(=O)[C@@H](CCCCNC(=S)Nc1ccc2c(c1)C(=O)OC21c2ccc(O)cc2Oc2cc(O)ccc21)NC3=O [Compound 12]

Compound: COc1ccc(C2=N[C@@H](c3ccc(Cl)cc3)[C@@H](c3ccc(Cl)cc3)N2C(=O)N2CCNC(=O)C2)c(OC(C)C)c1 [Nutlin-3]
HDM2 levels relative to control cells [3]: not seen; also recorded: very weak stabilization effect on HDM2 | HDM2 levels with time [3]: only very small changes; also recorded: very little effect on HDM2 | p53Y220C levels [3]: No visible effect | p53Y220C levels with time [3]: no observable effect on p53Y220C levels

Compound: CC(C)CCN1C(=O)[C@@H]2C[C@@]3(CN2C(=O)[C@@]12C[C@H]1C(=O)N(Cc4ccc(Cl)c(Cl)c4)[C@]4(C[C@H]5C(=O)N[C@@H](Cc6ccccc6)C(=O)N5C4)C(=O)N1C2)NC(=O)[C@H](CCCCNC(=S)Nc1ccc2c(c1)C(=O)OC21c2ccc(O)cc2Oc2cc(O)ccc21)NC3=O [Compound 5]
Kd (HDM2_25–117): 6.3 µM

Kd (HDM2_25–117): 6.7 µM
Compound: CC(C)CN1C(=O)[C@@H]2C[C@@]3(CN2C(=O)[C@@]12C[C@H]1C(=O)N(Cc4ccc(Cl)c(Cl)c4)[C@]4(C[C@@H]5C(=O)N[C@@H](CCc6ccccc6)C(=O)N5C4)C(=O)N1C2)NC(=O)[C@H](CCCCNC(=S)Nc1ccc2c(c1)C(=O)OC21c2ccc(O)cc2Oc2cc(O)ccc21)NC3=O [Compound 9]
